From DBAASP come the findings set out here.

Molecules are shown by their SMILES. Values after ≈ are worked out from the molar mass of the structure shown.

Experiment in all cases: ≥ marks a high value that may be exact or a test limit, other limits are often not marked, values filed in µg/mL are converted to µM
Experiment [1] deals with Aspergillus fumigatus KCTC 4165.
The subject of experiment [2] is Bacillus subtilis KCTC 1918.
Experiment [3] relates to Candida albicans TIMM 1768.
Experiment [4] relates to Escherichia coli KCTC 1682.
Experiment [5] has as its system Pseudomonas aeruginosa KCTC 1637.
The test system of experiment [6] is Salmonella typhimurium KCTC 1926.
Experiment [7] deals with Staphylococcus aureus KCTC 1621.
Experiment [8] has as its system Streptococcus pyogenes KCTC 3096.
Experiment [9] relates to Bacillus subtilis ATCC 6633.
Experiment [10] concerns Candida albicans ATCC 2002.
For experiment [11], the system named is Pseudomonas fluorescens ATCC 13525.
Experiment [12] deals with Staphylococcus aureus ATCC 2592.
The test system of experiment [13] is Streptococcus gordonii ATCC 10558.
Experiment [14] relates to Streptococcus gordonii DL1.
Experiment [15] relates to Streptococcus mutans ATCC 104495.
The subject of experiment [16] is Streptococcus mutans ATCC 25175.
For another experiment, the system named is Streptococcus mutans T8.
Experiment [17] has as its system Streptococcus mutans UA140.
Experiment [18] has as its system Streptococcus mutans UA159.
For experiment [19], the system named is Streptococcus mutans comD.
The test system of experiment [20] is Streptococcus salivarius K12.
In experiment [21] the test system is Streptococcus sanguinis ATCC 10556.
The subject of experiment [22] is Streptococcus sanguinis NY101.
Experiment [23] has as its system Candida albicans ATCC 36232.
Experiment [24] concerns Corynebacterium diphtheriae ATCC 8024.
For experiment [25], the system named is Escherichia coli ATCC 2592.
Experiment [26] relates to Micrococcus luteus ATCC 9341.
Experiment [27] concerns Pseudomonas aeruginosa ATCC 9027.
The test system of experiment [28] is Shigella flexneri ATCC 203.
Experiment [29] concerns Staphylococcus aureus ATCC 6538.
Another experiment relates to Staphylococcus aureus.
Experiment [30] relates to Staphylococcus epidermidis ATCC 12228.
The test system of experiment [31] is Bacillus subtilis ATCC 23857.
For experiment [32], the system named is Candida albicans ATCC 10231.
Experiment [33] has as its system Escherichia coli ATCC 25922.
The subject of experiment [34] is Klebsiella aerogenes ATCC 13048.
Experiment [35] deals with Staphylococcus aureus ATCC 29737.
Experiment [36] concerns Staphylococcus epidermidis ATCC 12222.

With `CC[C@H](C)[C@H](NC(=O)[C@H](CCCCN)NC(=O)[C@H](CCCCN)NC(=O)[C@H](CC(C)C)NC(=O)[C@H](CCCCN)NC(=O)[C@H](CCC(=O)O)NC(=O)CN)C(=O)NCC(=O)N[C@@H](CCC(N)=O)C(=O)N[C@@H](CCCCN)C(=O)N[C@H](C(=O)N[C@@H](CCCCN)C(=O)N[C@@H](CCCCN)C(=O)N[C@@H](Cc1ccccc1)C(=O)N[C@@H](Cc1ccccc1)C(=O)N[C@@H](CCC(N)=O)C(=O)N[C@@H](CCCCN)C(=O)N[C@@H](CC(C)C)C(=O)O)[C@@H](C)CC` [GEKLKKIGQKIKKFFQKL], the MIC is 25 µM (≈ 54 µg/mL) in experiment [1]; 25 µM (≈ 54 µg/mL) in [2]; no less than 50 µM in experiment [3]; 25 µM (≈ 54 µg/mL) in [4]; 6.25 µM (≈ 13.5 µg/mL) in experiment [5]; 12.5 µM (≈ 27 µg/mL) in experiment [6]. Further, the MIC in experiment [7] and in [8] was 25 µM (≈ 54 µg/mL) throughout.
`CC[C@H](C)[C@H](NC(=O)[C@H](C)NC(=O)[C@@H](NC(=O)[C@@H]1CCCN1C(=O)[C@H](CC(C)C)NC(=O)[C@@H](NC(=O)[C@H](CC(N)=O)NC(=O)[C@H](C)NC(=O)[C@H](C)NC(=O)[C@@H](NC(=O)[C@H](CCCCN)NC(=O)[C@H](CC(C)C)NC(=O)[C@H](C)NC(=O)[C@@H](NC(=O)CNC(=O)[C@H](Cc1ccccc1)NC(=O)[C@@H](N)Cc1ccccc1)[C@@H](C)O)[C@@H](C)CC)C(C)C)[C@@H](C)O)C(=O)N[C@H]1CSSC[C@@H](C(=O)O)NC(=O)[C@H](CCCCN)NC(=O)[C@H](CCCCN)NC(=O)[C@H](CC(C)C)NC(=O)[C@H]([C@@H](C)CC)NC(=O)[C@H](CCCCN)NC1=O` [FFGTALKIAANVLPTAICKILKKC]: the MIC in experiment [9] came to 2.34 µM (≈ 6 µg/mL); in experiment [10] it was 19.5 µM (≈ 50 µg/mL); in [11] it was 31.2 µM (≈ 79.9 µg/mL); in [12] it was 3.9 µM (≈ 9.99 µg/mL).
Turning to `CC(C)C[C@H](NC(=O)[C@H](C)NC(=O)[C@H](CCC(N)=O)NC(=O)[C@@H](NC(=O)[C@H](Cc1ccccc1)NC(=O)[C@H](CO)NC(=O)[C@H](CCCN=C(N)N)NC(=O)[C@H](CC(N)=O)NC(=O)[C@H](Cc1ccccc1)NC(=O)[C@H](CC(C)C)NC(=O)[C@H](CCCN=C(N)N)NC(=O)[C@H](Cc1ccccc1)NC(=O)[C@H](Cc1ccccc1)NC(=O)[C@@H](N)[C@@H](C)O)[C@@H](C)O)C(=O)NCC(=O)N[C@@H](CCCCN)C(=O)O` [TFFRLFNRSFTQALGK], the MIC in experiment [13] is no less than 64 µM; in [14], no less than 60 µM; in experiment [15] it was no less than 64 µM; in experiment [16] it was no less than 60 µM; against Streptococcus mutans T8, no less than 60 µM; in experiment [17], no less than 64 µM. Further, the MIC was no less than 60 µM in [18]; no less than 60 µM in experiment [19]; no less than 64 µM in experiment [20]; no less than 64 µM in experiment [21]; no less than 60 µM in [22].
Consider `CC[C@H](C)[C@H](NC(=O)[C@H](CC(=O)O)NC(=O)[C@H](CS)NC(=O)[C@@H](NC(=O)[C@@H](N)C(C)C)[C@@H](C)O)C(=O)N[C@@H](CC(C)C)C(=O)N[C@@H](CO)C(=O)N[C@H](C(=O)N[C@@H](CCC(=O)O)C(=O)N[C@@H](C)C(=O)N[C@@H](CCCCN)C(=O)NCC(=O)N[C@H](C(=O)N[C@@H](CCCCN)C(=O)N[C@@H](CC(C)C)C(N)=O)C(C)C)C(C)C` [VTCDILSVEAKGVKL], for which the minimal inhibitory concentration (MIC) is no less than 63.5 µM in experiment [9]; no less than 63.5 µM in experiment [23]; no less than 63.5 µM in [24]; no less than 63.5 µM in experiment [25]; no less than 63.5 µM in [26]; greater than 63.5 µM in experiment [27]. In addition, the MIC is no less than 63.5 µM in experiment [28], greater than 63.5 µM in [29], greater than 63.5 µM in the experiment with Staphylococcus aureus and greater than 63.5 µM in experiment [30].
As to `CC(C)C[C@H](NC(=O)[C@H](CC(C)C)NC(=O)[C@H](CCCCN)NC(=O)[C@H](CCCCN)NC(=O)[C@H](CC(C)C)NC(=O)[C@H](CC(C)C)NC(=O)[C@H](CCCCN)NC(=O)[C@H](CCCCN)NC(=O)[C@H](CC(C)C)NC(=O)[C@@H](N)CC(C)C)C(=O)N[C@@H](CCCCN)C(=O)N[C@@H](CCCCN)C(N)=O` [LLKKLLKKLLKK], the MIC in experiment [31] was 21.4 µM (≈ 31.3 µg/mL); in experiment [32], 85.3 µM (≈ 125 µg/mL); in experiment [33], greater than 341 µM; in experiment [34] it was no less than 341 µM; in [27] it was 43 µM (≈ 63 µg/mL); in experiment [35], no less than 341 µM. Moreover, in experiment [36], the MIC is no less than 43 µM.

For orientation: MIC means the smallest concentration in the dilution series that meets the test's criterion for growth inhibition. The low end stands for greater potency, the high end for weaker potency.
